Our source for the EC50 values is patent US20210038681A1, “PHARMACEUTICAL COMPOSITION FOR TREATING VIRAL HEPATITIS C” (priority 2018, published 2021).

Like-named read-outs stand apart in the source and are kept apart here.

Test [1] concerns Wild-type HCV 1b replicon. The class given is cell-based. The conditions noted are these: Hepatitis C virus, read-out: Mean EC50 (nM).
The test system of test [2] is HCV 1a Wild-type replicon. Description: microbe, parasite or virus in culture. The conditions noted are these: Hepatitis C virus, Huh-7, read-out: Mean EC50 (nM) ± SD.
The subject of test [3] is HCV 1a Wild-type replicon. The conditions noted are these: read-out: Mean EC50 (nM) ± SD; HCV 1a variant Wild-type; Huh7-Lunet cells.

The EC50 is the concentration needed to bring the measured effect to its halfway point. With `CC(C)(C)OC(=O)N[C@H]1CCCCC/C=C\[C@@H]2C[C@@]2(C(=O)NS(=O)(=O)C2CC2)NC(=O)[C@@H]2C[C@@H](OC(=O)N3Cc4cccc(F)c4C3)CN2C1=O` [ASC08, Danoprevir], the EC50 in test [1] was found to be 0.7 nM; in test [2], 5.4 nM. `CNC(=O)c1c(-c2ccc(F)cc2)oc2cc(N(CCO)S(C)(=O)=O)c(C3CC3)cc12` [HCV-796]: in test [2], the EC50 amounted to 11.8 nM. Take `C[C@@]1(F)[C@H](O)[C@@H](CO)O[C@H]1n1ccc(N)nc1=O` [PSI-6130]: the EC50 in test [3] stood at 770 nM.
